A short description of data set [1]: Atovaquone solubility in pharmaceutical excipients. The data set is classed as physicochemical. The note with it: thermodynamic from solid. As for the experimental part:
Excess atovaquone (100 mg/mL) (Molekula, Irvine, Calif.) was added to each of the following excipients: Benzyl Benzoate, Tween 20, Tween 80, PEG 200, PEG 400, Labrafac, Labrafil, Capryol, Capmul, Captex, Propylene Glycol and Isopropyl Palmitate. The mixtures were shaken at 100 RPM at 37° C. for 48 hours. Each individual sample was centrifuged at 3000 RPM for 10 minutes. The supernatant was then filtered through a 0.45 μm PTFE filter. Quantification of atovaquone content in the filtrate was performed using a Dionex HPLC (Thermo Fisher Scientific Inc., Waltham, Mass.) with an Inertsil® ODS-2 column (5 μm, 4.6×250 mm) with a mobile phase 0.1% TFA ACN: 0.1% TFA H2O (80:20) at flow rate of 2 mL/min and a run time of 10 minutes.

A short description of data set [2]: Atovaquone solubility in pharmaceutical excipients. The data set is classed as physicochemical. The note with it: thermodynamic from solid. The source holds these as a separate data set.

In patent US20200206139A1, “COMPOSITIONS FOR THE IMPROVED DELIVERY OF DRUGS” (BOARD OF REGENTS, THE UNIVERSITY OF TEXAS SYSTEM, priority 2017, published 2020) one finds solubility data, which are given here for one compound.

Values after ≈ are worked out from the molar mass of the structure shown.

On to `O=C1C(O)=C([C@H]2CC[C@H](c3ccc(Cl)cc3)CC2)C(=O)c2ccccc21` [atovaquone], for which the solubility (usually the dissolved amount per volume that the medium holds) at 48 h in data set [1] (Benzyl Benzoate (neat excipient), organic solvent or mixture, in Benzyl Benzoate, 37° C.) worked out at 14300 µg/mL (≈ 39 mM); in data set [1] (Capryol (neat excipient), oil or lipid, in Capryol, 37° C.), 5540 µg/mL (≈ 15.1 mM); in data set [1] (Isopropyl Palmitate (neat excipient), oil or lipid, in Isopropyl Palmitate, 37° C.), 2460 µg/mL (≈ 6.71 mM); in data set [1] (Labrafil (neat excipient), oil or lipid, in Labrafil, 37° C.) it was 3980 µg/mL (≈ 10.8 mM); in data set [1] (Labrasol (neat excipient), organic solvent or mixture, in Labrasol, 37° C.) it was 10200 µg/mL (≈ 27.9 mM); in data set [1] (PEG 200 (neat excipient), organic solvent or mixture, in PEG 200, 37° C.), 4780 µg/mL (≈ 13 mM). For the same compound, the solubility at 48 h was determined as 7220 µg/mL (≈ 19.7 mM) in data set [1] (PEG 400 (neat excipient), organic solvent or mixture, in PEG 400, 37° C.); 9690 µg/mL (≈ 26.4 mM) in data set [1] (Tween 20 (neat excipient), organic solvent or mixture, in Tween 20, 37° C.); 3470 µg/mL (≈ 9.46 mM) in data set [2] (Capmul (neat excipient), oil or lipid, in Capmul, 37° C.); 4590 µg/mL (≈ 12.5 mM) in data set [2] (Captex (neat excipient), oil or lipid, in Captex, 37° C.); 4080 µg/mL (≈ 11.1 mM) in data set [2] (Labrafac (neat excipient), oil or lipid, in Labrafac, 37° C.); 380 µg/mL (≈ 1.04 mM) in data set [2] (Propylene Glycol (neat excipient), organic solvent or mixture, in Proplylene Gycol, 37° C.). Besides, in data set [2] (Tween 80 (neat excipient), organic solvent or mixture, in Tween 80, 37° C.), the solubility at 48 h came to 10200 µg/mL (≈ 27.9 mM).
